Assay results reported in patent publication US10301304B2, “Selective inhibitor of phosphatidylinositol 3-kinase-gamma” (VERTEX PHARMACEUTICALS INCORPORATED, priority 2013, dated 2019).
Where two headings read alike, the source gives them in different places.

What was measured:
[1] = test system: buffy coat neutrophils and monocytes (PI3K-gamma); test: Isolated Leukocyte oxidative burst; format: cell-based; conditions: absence of serum, read-out: IC50 Average ± Standard Deviation
Source text: (§1) Neutrophils, monocytes and macrophages are key mediators of innate immunity. They release reactive oxygen species (ROS) as part of the innate immune inflammatory response. ROS production is induced by inflammatory mediators like chemokines, bacterial peptides and complement that recruit the innate immune cells to the site of inflammation. These inflammatory mediators trigger activation of PI3K-gamma and initiate a downstream signaling cascade that leads to the assembly of the complete NADPH oxidase complex at the plasma membrane generating ROS. PI3K-gamma functional activity was measured in whole blood and huffy coat neutrophils and monocytes via the generation of ROS. The cells are stimulated with TNF-alpha for 10 minutes, then with bacterial cell wall-derived chemotactic peptide, fMLP, for 20 minutes, and loaded with a non-fluorescent dye […] (DHR). ROS produced by the cells oxidizes DHR to fluorescent rhodamine causing an increase in fluorescent rhodamine content in the cells. PI3K-gamma functional activity is measured by the ability of neutrophils and monocytes to generate ROS following fMLP stimulation. Leukocytes and whole blood samples were analyzed on a BD FACSCalibur™ to quantitate cells positive for fluorescent rhodamine. Buffy coat cells generate IC50S in the absence of serum and whole blood assay generates IC50S in the presence of serum.

[2] = test system: whole blood neutrophils and monocytes (PI3K-gamma); test: Whole Blood oxidative burst; format: cell-based; conditions: presence of serum, read-out: IC50 Average ± Standard Deviation
Source text: as §1

HUVECs = test: HUVEC Proliferation Assay; format: cell-based, human; conditions: for IC50: Homo sapiens, HUVEC
Protocol: PI3Ks are important signaling molecules downstream of a number of growth factors that regulate cell survival, growth and cell cycle entry. Both PI3K-alpha and PI3K-beta isoforms regulate cell cycle entry; inhibition of either isoform leads to reduced cell growth. HUVECs are primary human umbilical vein endothelial cells which express both the PI3Kα and PI3Kβ isoforms. Inhibition of either or both PI3K-alpha or PI3K-beta isoforms will inhibit the cell growth of HUVECs. Compounds are plated onto HUVECs, cell proliferation/viability is measure 96 hours post compound treatment using cell titer-glo to measure the ATP content of the cells in the well. Lack of or reduced proliferation is a measure of the extent of PI3K-alpha and/or PI3K-beta inhibition.

CYP1A2 = CYP1A2 (Homo sapiens, UniProt P05177); test: Metabolism by Recombinant CYP Enzymes; format: in vitro ADME; conditions: 1 μM, recombinant CYP1A2, NADPH
Protocol: (§2) Microsomes that contained recombinant CYP enzymes (CYP1A2, 2B6, 2C8, 2C9, 2C19, 2D6, 2E1 and 3A4) were used to determine which CYP catalyzes the oxidation of Compound 1. Accordingly, Compound 1 (1 μM) was incubated with individual recombinant CYPs in the presence of the cofactor NADPH. The percent parent drug remaining at the end of the incubation period was determined by LC-MS/MS and compared to that present at the beginning.

CYP2B6 = CYP2B6 (Homo sapiens, UniProt P20813); test: Metabolism by Recombinant CYP Enzymes; format: in vitro ADME; conditions: 1 μM, recombinant CYP2B6, NADPH
Protocol: as §2

CYP2C19 = CYP2C19 (Homo sapiens, UniProt P33261); test: Metabolism by Recombinant CYP Enzymes; format: in vitro ADME; conditions: 1 μM, recombinant CYP2C19, NADPH
Protocol: as §2

CYP2C8 = CYP2C8 (Homo sapiens, UniProt P10632); test: Metabolism by Recombinant CYP Enzymes; format: in vitro ADME; conditions: 1 μM, recombinant CYP2C8, NADPH
Protocol: as §2

CYP2C9 = CYP2C9 (Homo sapiens, UniProt P11712); test: Metabolism by Recombinant CYP Enzymes; format: in vitro ADME; conditions: 1 μM, recombinant CYP2C9, NADPH
Protocol: as §2

CYP2D6 = CYP2D6 (Homo sapiens, UniProt P10635); test: Metabolism by Recombinant CYP Enzymes; format: in vitro ADME; conditions: 1 μM, recombinant CYP2D6, NADPH
Protocol: as §2

CYP2E1 = CYP2E1 (Homo sapiens, UniProt P05181); test: Metabolism by Recombinant CYP Enzymes; format: in vitro ADME; conditions: 1 μM, recombinant CYP2E1, NADPH
Protocol: as §2

CYP3A4 = CYP3A4 (Homo sapiens, UniProt P08684); test: Metabolism by Recombinant CYP Enzymes; format: in vitro ADME; conditions: 1 μM
Protocol: as §2

P-gp (MDR1) = molecular target: T1, P-gp (MDR1) (Homo sapiens, UniProt P08183); test: Efflux in MDCK-MDR1 cell line; format: in vitro ADME; conditions: human; for recovery at 1 h, 1 μM: MDCK-MDR1, MDCK-MDR1, 1 μM
T1 construct: expressed in transfected cells; host or cells: MDCK (Madin-Darby canine kidney) cells, MDCK-MDR1
Protocol: (§3) The permeability of Compound 1 was evaluated using both Caco-2 and MadinDarby canine kidney (MDCK) wild-type cell lines. Cells were exposed to drug in buffer on the apical side (measuring permeability in the A-to-B direction) or basolateral side (measuring permeability in the B-to-A direction) and incubated at 37° C. for one hour. Permeability was high in the A-to-B direction in both the MDCK and Caco-2 cell lines (33 and 18×10^−6 cm/sec, respectively).
(§4) An assessment of whether Compound 1 is a substrate of efflux transporters was conducted by using the MDCK cell line that is overexpressed with human P-gp (MDR).

human P-gp (MDR) = molecular target: T2, human P-gp (MDR) (Homo sapiens, UniProt P08183); test: Efflux in MDCK-MDR1 cell line; format: in vitro ADME; conditions: MDCK overexpressing human P-gp, in words
T2 construct: expressed in transfected cells; host or cells: MDCK (Madin-Darby canine kidney) cells, MDCK-MDR1
Protocol: as §3, §4

[3] = Oral pharmacokinetics / bioavailability; format: in vivo, Rat
Source text: The bioavailability in monkey (greater than 100%) may be explained by the tenfold difference between the IV and oral doses. Compound 1 was rapidly absorbed in all species, with maximum systemic concentration observed within approximately one to three hours of dosing.

[4] = in vivo, Rat, single oral, 1 mg/kg nominal, spray-dried dispersion

T1 sequence (P08183 whole entry): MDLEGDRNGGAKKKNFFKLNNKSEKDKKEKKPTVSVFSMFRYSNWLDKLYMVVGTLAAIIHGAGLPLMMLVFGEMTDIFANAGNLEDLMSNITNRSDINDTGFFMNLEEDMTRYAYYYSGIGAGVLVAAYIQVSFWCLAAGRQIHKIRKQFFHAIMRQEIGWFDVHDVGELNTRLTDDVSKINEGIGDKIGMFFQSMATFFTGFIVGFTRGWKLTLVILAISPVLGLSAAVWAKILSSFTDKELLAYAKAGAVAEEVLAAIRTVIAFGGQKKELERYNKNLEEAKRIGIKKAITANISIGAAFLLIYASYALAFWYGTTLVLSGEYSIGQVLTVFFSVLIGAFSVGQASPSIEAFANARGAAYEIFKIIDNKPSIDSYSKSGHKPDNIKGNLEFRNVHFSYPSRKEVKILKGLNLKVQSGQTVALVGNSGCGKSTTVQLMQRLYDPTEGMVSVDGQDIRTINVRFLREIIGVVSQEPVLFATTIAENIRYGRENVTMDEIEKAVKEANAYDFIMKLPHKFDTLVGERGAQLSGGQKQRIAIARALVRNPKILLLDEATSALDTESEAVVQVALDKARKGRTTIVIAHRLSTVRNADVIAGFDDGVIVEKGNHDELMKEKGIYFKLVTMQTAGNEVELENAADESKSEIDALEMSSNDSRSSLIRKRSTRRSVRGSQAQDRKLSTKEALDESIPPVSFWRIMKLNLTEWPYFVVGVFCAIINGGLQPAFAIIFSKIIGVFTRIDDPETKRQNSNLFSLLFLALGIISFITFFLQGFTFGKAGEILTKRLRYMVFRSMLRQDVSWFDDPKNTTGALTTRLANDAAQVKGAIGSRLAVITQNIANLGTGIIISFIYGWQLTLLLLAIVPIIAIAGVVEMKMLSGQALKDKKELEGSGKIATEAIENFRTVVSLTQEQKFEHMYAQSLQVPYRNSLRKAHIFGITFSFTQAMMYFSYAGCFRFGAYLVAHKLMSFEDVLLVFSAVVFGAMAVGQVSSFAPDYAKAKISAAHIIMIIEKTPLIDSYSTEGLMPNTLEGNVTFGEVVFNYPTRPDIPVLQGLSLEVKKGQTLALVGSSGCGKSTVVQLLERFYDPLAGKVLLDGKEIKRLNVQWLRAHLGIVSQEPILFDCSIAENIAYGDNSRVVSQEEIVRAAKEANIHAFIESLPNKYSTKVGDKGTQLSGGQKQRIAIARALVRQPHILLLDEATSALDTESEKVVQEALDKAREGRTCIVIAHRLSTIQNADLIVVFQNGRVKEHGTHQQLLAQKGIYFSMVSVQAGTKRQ
Chain of CYP3A4 (P08684 whole entry): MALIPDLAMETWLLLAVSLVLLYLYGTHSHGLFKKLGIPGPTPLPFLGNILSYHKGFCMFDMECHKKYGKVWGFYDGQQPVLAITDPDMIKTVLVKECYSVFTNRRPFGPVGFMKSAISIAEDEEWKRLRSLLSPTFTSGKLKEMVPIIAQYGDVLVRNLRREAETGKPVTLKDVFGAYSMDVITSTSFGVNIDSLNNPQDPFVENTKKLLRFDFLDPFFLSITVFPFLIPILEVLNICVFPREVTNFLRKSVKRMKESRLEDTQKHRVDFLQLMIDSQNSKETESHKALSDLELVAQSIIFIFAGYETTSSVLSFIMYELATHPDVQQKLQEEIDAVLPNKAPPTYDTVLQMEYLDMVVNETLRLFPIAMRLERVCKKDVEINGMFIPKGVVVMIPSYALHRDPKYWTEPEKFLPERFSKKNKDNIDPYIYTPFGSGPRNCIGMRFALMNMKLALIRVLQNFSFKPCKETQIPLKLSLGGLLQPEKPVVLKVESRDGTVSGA
Chain of CYP2C8 (P10632 whole entry): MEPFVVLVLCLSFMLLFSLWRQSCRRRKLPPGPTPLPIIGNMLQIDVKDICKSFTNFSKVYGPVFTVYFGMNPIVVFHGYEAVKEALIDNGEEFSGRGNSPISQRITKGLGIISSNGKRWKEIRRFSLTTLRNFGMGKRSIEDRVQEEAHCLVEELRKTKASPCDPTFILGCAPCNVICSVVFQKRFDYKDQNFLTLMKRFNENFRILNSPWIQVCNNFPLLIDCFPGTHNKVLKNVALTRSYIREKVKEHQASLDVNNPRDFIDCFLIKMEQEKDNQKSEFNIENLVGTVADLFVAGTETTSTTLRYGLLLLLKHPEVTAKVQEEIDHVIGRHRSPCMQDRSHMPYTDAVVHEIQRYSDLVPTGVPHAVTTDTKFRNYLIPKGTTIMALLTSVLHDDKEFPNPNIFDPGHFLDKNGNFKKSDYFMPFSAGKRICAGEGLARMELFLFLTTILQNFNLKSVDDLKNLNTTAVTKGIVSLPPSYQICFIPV
Chain of CYP2B6 (P20813 whole entry): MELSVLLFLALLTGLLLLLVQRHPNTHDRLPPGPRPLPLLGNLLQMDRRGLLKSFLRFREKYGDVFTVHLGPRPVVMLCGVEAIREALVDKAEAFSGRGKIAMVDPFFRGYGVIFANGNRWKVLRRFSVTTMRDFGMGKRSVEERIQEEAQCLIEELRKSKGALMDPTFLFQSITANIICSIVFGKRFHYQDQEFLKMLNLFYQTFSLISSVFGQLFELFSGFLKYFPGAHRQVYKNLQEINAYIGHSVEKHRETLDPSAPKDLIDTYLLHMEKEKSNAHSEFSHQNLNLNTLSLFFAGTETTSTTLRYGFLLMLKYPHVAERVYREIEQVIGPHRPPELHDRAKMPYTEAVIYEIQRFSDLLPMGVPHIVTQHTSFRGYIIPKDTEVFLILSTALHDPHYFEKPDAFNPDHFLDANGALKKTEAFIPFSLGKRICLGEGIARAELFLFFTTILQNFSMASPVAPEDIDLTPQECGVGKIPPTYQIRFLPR
T2 sequence (P08183 whole entry): as the sequence (P08183 whole entry) above
Chain of CYP2D6 (P10635 whole entry): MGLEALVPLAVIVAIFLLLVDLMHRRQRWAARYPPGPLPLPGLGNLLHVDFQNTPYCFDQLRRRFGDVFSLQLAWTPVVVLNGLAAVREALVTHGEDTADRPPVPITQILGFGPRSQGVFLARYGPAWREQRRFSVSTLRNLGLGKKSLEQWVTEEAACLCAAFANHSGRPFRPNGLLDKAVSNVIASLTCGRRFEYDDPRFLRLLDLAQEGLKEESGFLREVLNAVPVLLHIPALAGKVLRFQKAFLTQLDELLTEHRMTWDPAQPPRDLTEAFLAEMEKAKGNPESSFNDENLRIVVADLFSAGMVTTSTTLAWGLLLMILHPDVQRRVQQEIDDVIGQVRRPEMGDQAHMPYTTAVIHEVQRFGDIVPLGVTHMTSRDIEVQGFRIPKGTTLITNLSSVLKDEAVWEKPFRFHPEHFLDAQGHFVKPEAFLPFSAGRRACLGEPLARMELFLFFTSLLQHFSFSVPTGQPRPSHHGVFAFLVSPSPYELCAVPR
Chain of CYP2C9 (P11712 whole entry): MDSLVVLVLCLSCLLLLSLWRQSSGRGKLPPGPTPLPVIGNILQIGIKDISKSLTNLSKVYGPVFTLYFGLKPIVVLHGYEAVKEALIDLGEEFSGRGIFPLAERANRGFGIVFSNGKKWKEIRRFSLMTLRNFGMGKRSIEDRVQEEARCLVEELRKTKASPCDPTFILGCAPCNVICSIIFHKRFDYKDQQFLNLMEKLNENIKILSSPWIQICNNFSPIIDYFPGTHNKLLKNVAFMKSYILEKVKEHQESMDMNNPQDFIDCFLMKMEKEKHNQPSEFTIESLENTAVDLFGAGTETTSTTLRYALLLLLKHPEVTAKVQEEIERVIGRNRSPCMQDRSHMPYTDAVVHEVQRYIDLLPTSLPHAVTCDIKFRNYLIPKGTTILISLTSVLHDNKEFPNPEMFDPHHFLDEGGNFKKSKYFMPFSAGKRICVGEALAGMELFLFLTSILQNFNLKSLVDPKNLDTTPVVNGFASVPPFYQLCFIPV

With `Cc1cc(-c2cncc([C@@H](O)C(F)(F)F)c2)nc2c1C(=O)N(c1cnn(CC(F)F)c1)C2(C)C` [Compound 1, (R)-6-(1-(2,2-difluoroethyl)-1H-pyrazol-4-yl)-4,7,7-trimethyl-2-(5-(2,2,2-trifluoro-1-hydroxyethyl)pyridin-3-yl)-6,7-dihydro-5H-pyrrolo[3,4-b]pyridin-5-one] the IC50 [1] was 220 nM, the IC50 [2] was 570 nM and the “selectivity over PI3K-alpha/beta” value (HUVECs; HUVEC proliferation) was > 74 fold. For the same molecule, the IC50 (HUVECs; 96 h, HUVEC Proliferation, 96 hours, PI3K-alpha/beta dependent, read-out: IC50 Avg +/− SD) was > 19000 nM, the IC50 (HUVECs; footnote * of Table 4, no anchor in the table, read-out: Individual assay data (IC50)) was > 20000 nM and the “selectivity over PI3K-alpha and PI3K-beta in cell based assays” value (HUVECs; summary) was 40-80 fold. For the same molecule, the “% Parent Remaining @ 30 min” value (CYP1A2) was 105%, the “% Parent Remaining @ 30 min” value (CYP2B6) was 107% and the “% Parent Remaining @ 30 min” value (CYP2C19) was 118%. The “% Parent Remaining @ 30 min” value (CYP2C8) was 105%, the “% Parent Remaining @ 30 min” value (CYP2C9) was 108% and the “% Parent Remaining @ 30 min” value (CYP2D6) was 100%. The “% Parent Remaining @ 30 min” value (CYP2E1) was 105%, the “Metabolism by recombinant CYPs” value (CYP3A4; in words) was “detected only in the incubation with CYP3A4” and the “% Parent Remaining @ 30 min” value (CYP3A4; recombinant CYP3A4, NADPH) was 92%. It also gave a recovery at 1 h, 1 μM (P-gp (MDR1); A > B) of 97%, a recovery at 1 h, 1 μM (P-gp (MDR1); B > A) of 87% and an efflux ratio at 1 h, 1 μM (P-gp (MDR1); MDCK-MDR1, 1 μM) of 35.1. For the same molecule, the Papp A→B at 1 h, 1 μM (P-gp (MDR1); MDCK-MDR1, 1 μM, A > B) was 0.98 ×10⁻⁶ cm/s, the Papp B→A at 1 h, 1 μM (P-gp (MDR1); MDCK-MDR1, 1 μM, B > A) was 34.3 ×10⁻⁶ cm/s and the “substrate of efflux transporters” value (human P-gp (MDR)) was “P-gp substrate”. For the same molecule, the DN_AUCINF ([3]; Rat, single oral, 1 mg/kg nominal, spray-dried dispersion) was 5140 ng·h/mL, the F ([3]; Rat, single oral, 1 mg/kg nominal, spray-dried dispersion, 1 mg/kg) was 84% and the AUC(0-inf) [3, 4] was 5110 ng·h/mL. For the same molecule, the MRT [3, 4] was 18.3 h, the Tmax [3, 4] was 3.33 h and the half-life [3, 4] was 12.5 h. For the same molecule, the AUC ([3]; in vivo, Rat, single oral, 1 mg/kg nominal, spray-dried dispersion, read-out: AUCALL) was 5000 ng·h/mL, the Cmax ([3]; in vivo, Rat, single oral, 1 mg/kg nominal, spray-dried dispersion, read-out: Cmax) was 260 ng/mL and the AUC ([3]; rat, in vivo, Oral gavage, 3 mg/kg nominal dose, vehicle 0.2%MC/1%SLS, read-out: Rat PO AUC) was 18000 ng·h/mL. It also gave a Cmax ([3]; rat, in vivo, Oral gavage, 3 mg/kg nominal dose, vehicle 0.2%MC/1%SLS, read-out: Rat PO Cmax) of 1000 ng/mL.
